According to patent publication EP0176444A1, “Process for the preparation of derivatives of 4H-1,2,4-triazole, triazoles so obtained, their use as medicaments, and pharmaceutical compositons containing them” (ROUSSEL-UCLAF, priority 1984, dated 1986):

Tests used:
[1] = tested on: arthrite chronique à l'adjuvant; experiment: Anti-inflammatory activity: chronic adjuvant arthritis (preventive treatment); format: in vivo, rat
Protocol: L'injection d'adjuvant du type Freund dans une patte postérieure provoque, chez le rat, l'apparition rapide d'une lésion inflammatoire primaire dans cette patte, puis, après un temps de latence de 13 à 15 jours, le déclenchement d'une arthrite secondaire affectant notamment l'autre patte postérieure. Le test est pratiqué sur des rats mâles âgés de 42 à 50 jours, qui reçoivent en injection intraplantaire, 0,1 ml d'adjuvant de type "Freund" (suspension dans l'huile de vaseline de 6 mg par ml de mycobacterium butyricum tués).
Les animaux reçoivent le produit étudié, par voie orale, du jour 0 (jour de l'injection de l'adjuvant) jusqu'à la veille du sacrifice, pratiqué le jour 17. Des animaux témoins arthritiques, des animaux témoins normaux ne reçoivent que le véhicule. Les critères d'appréciation de l'activité des substances étudiées sont les augmentations de volume des pattes postérieures non injectées (inflammation secondaire) par rapport au volume moyen des pattes correspondantes de témoins normaux.
On détermine la DA50, c'est-à-dire la dose qui diminue de 50% les augmentations de volume des pattes postérieures des animaux traités par rapport aux animaux témoins.

[2] = tested on: mouvements répétés d'étirement et de torsion; experiment: Analgesic activity: acetic acid-induced stretching (writhing) test, Koster; format: in vivo, souris; settings: 0.25 h; mouse, oral route half an hour before i.p. acetic acid 100 mg/kg; stretches counted for 15 min; dose giving 50 % decrease in number of stretches vs controls; read-out: DA50 (the source's name)
Description: Le test employé est basé sur le fait signalé par R. KOSTER et Coll., (Fed. Proc. 1959, 16412) selon lequel l'injection intrapéritonéale d'acide acétique provoque, chez la souris, des mouvements répétés d'étirement et de torsion pouvant persister pendant plus de six heures. Les analgésiques préviennent ou diminuent ce syndrome qui peut être considéré comme l'extériorisation d'une douleur abdominale diffuse. On utilise une solution d'acide acétique à 1 % dans l'eau. La dose déclenchant le syndrome est dans ces conditions de 0,01 cm^3/g, soit 100 mg/kg d'acide acétique.
Le produit étudié est administré par voie buccale une demi-heure avant l'injection d'acide acétique, les souris étant à jeun depuis la veille de l'expérience.
Les étirements sont observés et comptés pour chaque souris pendant une période d'observation de quinze minutes commençant aussitôt après l'injection d'acide acétique.
Les résultats sont exprimés au moyen de la DA50, c'est-à-dire la dose qui permet d'obtenir une diminution de 50 % du nombre des étirements par rapport aux animaux témoins.

| Compound | activité anti-inflammatoire ([1]; general statement in the description: models of chronic inflammation) | ED50 [2] | activité anti-inflammatoire (arthrite chronique à l'adjuvant) ([1]; male rats, oral route from day 0 to the day before sacrifice on day 17, volume increase of non-injected hind paws (secondary inflammation), result given in words only) |
| --- | --- | --- | --- |
| COc1ccc(-n2c(-c3ccc(N(C)C)cc3)nnc2C(C)O)cc1 (stereo not drawn) [5-/4-(diméthylamino) phényl/ 4-(4-méthoxyphényl)α-méthyl 4H-1,2,4-triazole 3-méthanol] | une certaine activité anti-infiammatoire |  |  |
| COc1ccc(-n2c(-c3ccc(N(C)C)cc3)nnc2[C@H](C)O)cc1 [Exemple 11, 5-/4-(diméthylamino)-phényl/ 4-(4-méthoxyphényl)α-méthyl 4H-1,2,4-triazol-3-méthanol] |  | 4 mg/kg | activité notable |
